The record followed here is ChEMBL document CHEMBL1697781, “Assessment of the health effects of chemicals in humans: II. Construction of an adverse effects database for QSAR modeling” (Curr Drug Discov Technol, 2004).

Common to all, as to conditions: human
The subject of data set [1] is Hepatotoxicity. The experiment in a line: FDA HLAED, alkaline phosphatase increase.
For data set [2], the system named is Hepatotoxicity. The experiment in a line: FDA HLAED, gamma-glutamyl transferase (GGT) increase.
In data set [3] the test system is Hepatotoxicity. The experiment in a line: FDA HLAED, liver enzyme composite activity.
Data set [4] concerns Hepatotoxicity. The experiment in a line: FDA HLAED, serum glutamic pyruvic transaminase (SGPT) increase.
Data set [5] relates to Hepatotoxicity. The experiment in a line: FDA HLAED, lactate dehydrogenase (LDH) increase.
For data set [6], the system named is Hepatotoxicity. The experiment in a line: FDA HLAED, serum glutamic oxaloacetic transaminase (SGOT) increase.
Throughout, for GGT Increase - Index Value: reference of the scale not given here.
Throughout, for LDH Increase - Index Value: reference of the scale not given here.

On to `Nc1nc(Cl)nc2c1ncn2[C@H]1C[C@H](O)[C@@H](CO)O1` [CLADRIBINE], for which, in the data set on Hepatotoxicity [1], the “Alkaline Phosphatase Increase - Activity Score” value was “Inactive”, the “Alkaline Phosphatase Increase - Index Value” amounted to 16.2 and the “Alkaline Phosphatase Increase - Number of Reports” value is on record as less than 4. Further, in the data set on Hepatotoxicity [2], the “GGT Increase - Activity Score” value was “Inactive”, the “GGT Increase - Index Value” is given as 8.1 and the “GGT Increase - Number of Reports” value is less than 4. In the data set on Hepatotoxicity [3], the “Composite Activity - Active” value is given as 0, the “Composite Activity - Marginal” value turned out to be 0 and the “Composite Activity - Score” value is on record as “Inactive”. Moreover, in the data set on Hepatotoxicity [4], the “SGPT Increase - Activity Score” value is “Inactive”, the “SGPT Increase - Index Value” was determined as 16.2 and the “SGPT Increase - Number of Reports” value was less than 4. Also, in the data set with Hepatotoxicity [5], the “LDH Increase - Activity Score” value is “Inactive”, the “LDH Increase - Index Value” worked out at 0 and the “LDH Increase - Number of Reports” value is given as less than 4. Besides, in the data set with Hepatotoxicity [6], the “SGOT Increase - Activity Score” value is “Inactive”, the “SGOT Increase - Index Value” came out at 16.2 and the “SGOT Increase - Number of Reports” value was less than 4.
On to `CC(CCc1ccc(O)cc1)NCCc1ccc(O)c(O)c1` (configuration not stated) [DOBUTAMINE], for which, in the data set on Hepatotoxicity [1], the “Alkaline Phosphatase Increase - Activity Score” value is “Inactive”, the “Alkaline Phosphatase Increase - Index Value” stood at 0 and the “Alkaline Phosphatase Increase - Number of Reports” value is on record as less than 4. In the data set on Hepatotoxicity [2], the “GGT Increase - Activity Score” value was “Inactive”, the “GGT Increase - Index Value” was determined as 0 and the “GGT Increase - Number of Reports” value was less than 4. Moreover, in the data set on Hepatotoxicity [3], the “Composite Activity - Active” value is 0, the “Composite Activity - Marginal” value is recorded as 0 and the “Composite Activity - Score” value is “Inactive”. In addition, in the data set on Hepatotoxicity [4], the “SGPT Increase - Activity Score” value is listed as “Inactive”, the “SGPT Increase - Index Value” amounted to 0 and the “SGPT Increase - Number of Reports” value is on record as less than 4. In addition, in the data set with Hepatotoxicity [5], the “LDH Increase - Activity Score” value is “Inactive”, the “LDH Increase - Index Value” is reported as 0 and the “LDH Increase - Number of Reports” value is reported as less than 4. In the data set on Hepatotoxicity [6], the “SGOT Increase - Activity Score” value is on record as “Inactive”, the “SGOT Increase - Index Value” is 0 and the “SGOT Increase - Number of Reports” value is less than 4.
Take `Nc1ccn([C@H]2CC[C@@H](CO)O2)c(=O)n1` [ZALCITABINE]: in the data set on Hepatotoxicity [1], the “Alkaline Phosphatase Increase - Activity Score” value is listed as “Inactive”, the “Alkaline Phosphatase Increase - Index Value” is 2.9 and the “Alkaline Phosphatase Increase - Number of Reports” value is on record as less than 4. Also, in the data set on Hepatotoxicity [2], the “GGT Increase - Activity Score” value is recorded as “Inactive”, the “GGT Increase - Index Value” came out at 1.4 and the “GGT Increase - Number of Reports” value is less than 4. Besides, in the data set on Hepatotoxicity [3] (Liver), the “Composite Activity - Active” value is 1, the “Composite Activity - Marginal” value is on record as 0 and the “Composite Activity - Score” value is reported as “Inactive”. Also, in the data set with Hepatotoxicity [4], the “SGPT Increase - Activity Score” value is recorded as “Inactive”, the “SGPT Increase - Index Value” is listed as 2.9 and the “SGPT Increase - Number of Reports” value was less than 4. Also, in the data set with Hepatotoxicity [5], the “LDH Increase - Activity Score” value is recorded as “Inactive”, the “LDH Increase - Index Value” is recorded as 1.4 and the “LDH Increase - Number of Reports” value is given as less than 4. Also, in the data set on Hepatotoxicity [6], the “SGOT Increase - Activity Score” value is reported as “Active”, the “SGOT Increase - Index Value” was found to be 5.7 and the “SGOT Increase - Number of Reports” value is recorded as “>= 4”.
`C[C@H]1C[C@H]2[C@@H]3C[C@H](F)C4=CC(=O)C=C[C@]4(C)[C@@]3(F)[C@@H](O)C[C@]2(C)[C@@]1(O)C(=O)CCl` [HALOBETASOL]: in the data set on Hepatotoxicity [1], the “Alkaline Phosphatase Increase - Activity Score” value is “Inactive”, the “Alkaline Phosphatase Increase - Index Value” was found to be 0 and the “Alkaline Phosphatase Increase - Number of Reports” value is listed as less than 4. Moreover, in the data set on Hepatotoxicity [2], the “GGT Increase - Activity Score” value is listed as “Inactive”, the “GGT Increase - Index Value” amounted to 0 and the “GGT Increase - Number of Reports” value is less than 4. Moreover, in the data set with Hepatotoxicity [3], the “Composite Activity - Active” value stood at 0, the “Composite Activity - Marginal” value is reported as 0 and the “Composite Activity - Score” value is listed as “Inactive”. Also, in the data set on Hepatotoxicity [4], the “SGPT Increase - Activity Score” value was “Inactive”, the “SGPT Increase - Index Value” stood at 0 and the “SGPT Increase - Number of Reports” value was less than 4. Also, in the data set on Hepatotoxicity [5], the “LDH Increase - Activity Score” value is reported as “Inactive”, the “LDH Increase - Index Value” is recorded as 0 and the “LDH Increase - Number of Reports” value is recorded as less than 4. In the data set on Hepatotoxicity [6], the “SGOT Increase - Activity Score” value is reported as “Inactive”, the “SGOT Increase - Index Value” is on record as 0 and the “SGOT Increase - Number of Reports” value was less than 4.
In the case of `CCC(=O)O[C@@H](O[P@](=O)(CCCCc1ccccc1)CC(=O)N1C[C@H](C2CCCCC2)C[C@H]1C(=O)O)C(C)C` [FOSINOPRIL], in the data set with Hepatotoxicity [1], the “Alkaline Phosphatase Increase - Activity Score” value was “Inactive”, the “Alkaline Phosphatase Increase - Index Value” came to 0.3 and the “Alkaline Phosphatase Increase - Number of Reports” value is reported as less than 4. Moreover, in the data set with Hepatotoxicity [2], the “GGT Increase - Activity Score” value is listed as “Inactive”, the “GGT Increase - Index Value” was determined as 0.6 and the “GGT Increase - Number of Reports” value is reported as less than 4. In addition, in the data set with Hepatotoxicity [3], the “Composite Activity - Active” value is given as 0, the “Composite Activity - Marginal” value was 0 and the “Composite Activity - Score” value is recorded as “Inactive”. Besides, in the data set on Hepatotoxicity [4], the “SGPT Increase - Activity Score” value was “Inactive”, the “SGPT Increase - Index Value” came out at 1.5 and the “SGPT Increase - Number of Reports” value is “>= 4”. In the data set with Hepatotoxicity [5], the “LDH Increase - Activity Score” value is “Inactive”, the “LDH Increase - Index Value” was determined as 0.6 and the “LDH Increase - Number of Reports” value was less than 4. In the data set on Hepatotoxicity [6], the “SGOT Increase - Activity Score” value is listed as “Inactive”, the “SGOT Increase - Index Value” was determined as 1.5 and the “SGOT Increase - Number of Reports” value is “>= 4”.
Turning to `CC(=O)O[C@@]12CO[C@@H]1C[C@H](O)[C@@]1(C)C(=O)[C@H](O)C3=C(C)[C@@H](OC(=O)[C@H](O)[C@@H](NC(=O)OC(C)(C)C)c4ccccc4)C[C@@](O)([C@@H](OC(=O)c4ccccc4)[C@H]21)C3(C)C.O.O.O` [DOCETAXEL], in the data set with Hepatotoxicity [1], the “Alkaline Phosphatase Increase - Activity Score” value is “Inactive” and the “Alkaline Phosphatase Increase - Number of Reports” value was less than 4. Moreover, in the data set with Hepatotoxicity [2], the “GGT Increase - Activity Score” value is “Inactive” and the “GGT Increase - Number of Reports” value was less than 4. Moreover, in the data set with Hepatotoxicity [3], the “Composite Activity - Active” value was 0, the “Composite Activity - Marginal” value was 0 and the “Composite Activity - Score” value is reported as “Inactive”. For the same molecule, in the data set on Hepatotoxicity [4], the “SGPT Increase - Activity Score” value was “Inactive” and the “SGPT Increase - Number of Reports” value was less than 4. For the same molecule, in the data set on Hepatotoxicity [5], the “LDH Increase - Activity Score” value is on record as “Inactive” and the “LDH Increase - Number of Reports” value is reported as less than 4. In the data set on Hepatotoxicity [6], the “SGOT Increase - Activity Score” value was “Inactive” and the “SGOT Increase - Number of Reports” value is less than 4.
For `Cc1ncc2n1-c1ccc(Cl)cc1C(c1ccccc1F)=NC2` [MIDAZOLAM], in the data set with Hepatotoxicity [1], the “Alkaline Phosphatase Increase - Activity Score” value is reported as “Inactive”, the “Alkaline Phosphatase Increase - Index Value” was found to be 0.2 and the “Alkaline Phosphatase Increase - Number of Reports” value is given as less than 4. In addition, in the data set on Hepatotoxicity [2], the “GGT Increase - Activity Score” value is “Inactive”, the “GGT Increase - Index Value” turned out to be 0 and the “GGT Increase - Number of Reports” value is reported as less than 4. Further, in the data set with Hepatotoxicity [3], the “Composite Activity - Active” value is 0, the “Composite Activity - Marginal” value is on record as 0 and the “Composite Activity - Score” value is reported as “Inactive”. Also, in the data set with Hepatotoxicity [4], the “SGPT Increase - Activity Score” value was “Inactive”, the “SGPT Increase - Index Value” was found to be 0.2 and the “SGPT Increase - Number of Reports” value is less than 4. Moreover, in the data set on Hepatotoxicity [5], the “LDH Increase - Activity Score” value was “Inactive”, the “LDH Increase - Index Value” is on record as 0 and the “LDH Increase - Number of Reports” value was less than 4. In the data set on Hepatotoxicity [6], the “SGOT Increase - Activity Score” value was “Inactive”, the “SGOT Increase - Index Value” is reported as 0.2 and the “SGOT Increase - Number of Reports” value was less than 4.
As for `CN(N=O)C(=O)N[C@@H](C=O)[C@@H](O)[C@H](O)[C@H](O)CO` [STREPTOZOCIN], in the data set on Hepatotoxicity [1], the “Alkaline Phosphatase Increase - Activity Score” value is given as “Inactive”, the “Alkaline Phosphatase Increase - Index Value” was 11.8 and the “Alkaline Phosphatase Increase - Number of Reports” value is on record as less than 4. Further, in the data set with Hepatotoxicity [2], the “GGT Increase - Activity Score” value is reported as “Inactive”, the “GGT Increase - Index Value” worked out at 0 and the “GGT Increase - Number of Reports” value was less than 4. For the same molecule, in the data set with Hepatotoxicity [3], the “Composite Activity - Active” value is 0, the “Composite Activity - Marginal” value turned out to be 0 and the “Composite Activity - Score” value is “Inactive”. Also, in the data set on Hepatotoxicity [4], the “SGPT Increase - Activity Score” value was “Inactive”, the “SGPT Increase - Index Value” was found to be 0 and the “SGPT Increase - Number of Reports” value is less than 4. Moreover, in the data set on Hepatotoxicity [5], the “LDH Increase - Activity Score” value is reported as “Inactive”, the “LDH Increase - Index Value” is 0 and the “LDH Increase - Number of Reports” value is less than 4. Besides, in the data set on Hepatotoxicity [6], the “SGOT Increase - Activity Score” value is listed as “Inactive”, the “SGOT Increase - Index Value” came to 0 and the “SGOT Increase - Number of Reports” value is given as less than 4.
For the molecule `C[C@@H]1C[C@H]2[C@@H]3CCC4=CC(=O)C=C[C@]4(C)[C@@]3(Cl)[C@@H](O)C[C@]2(C)[C@@]1(O)C(=O)CCl` [MOMETASONE], in the data set with Hepatotoxicity [1], the “Alkaline Phosphatase Increase - Activity Score” value is given as “Inactive”, the “Alkaline Phosphatase Increase - Index Value” is recorded as 0 and the “Alkaline Phosphatase Increase - Number of Reports” value is reported as less than 4. In the data set with Hepatotoxicity [2], the “GGT Increase - Activity Score” value is listed as “Inactive”, the “GGT Increase - Index Value” is 0 and the “GGT Increase - Number of Reports” value was less than 4. In addition, in the data set on Hepatotoxicity [3], the “Composite Activity - Active” value is given as 0, the “Composite Activity - Marginal” value was found to be 0 and the “Composite Activity - Score” value is recorded as “Inactive”. Moreover, in the data set on Hepatotoxicity [4], the “SGPT Increase - Activity Score” value is given as “Inactive”, the “SGPT Increase - Index Value” is recorded as 0 and the “SGPT Increase - Number of Reports” value is given as less than 4. In the data set with Hepatotoxicity [5], the “LDH Increase - Activity Score” value is “Inactive”, the “LDH Increase - Index Value” is listed as 0 and the “LDH Increase - Number of Reports” value was less than 4. Besides, in the data set on Hepatotoxicity [6], the “SGOT Increase - Activity Score” value is “Inactive”, the “SGOT Increase - Index Value” turned out to be 0 and the “SGOT Increase - Number of Reports” value is less than 4.
